Experimental data reported in patent US20120157499A1, “DELIVERY OF AN ACTIVE DRUG TO THE POSTERIOR PART OF THE EYE VIA SUBCONJUNCTIVAL OR PERIOCULAR DELIVERY OF A PRODRUG” (Allergan, Inc., priority 2003, published 2012).

What was measured:
[1] = Subconjunctival injection into a patient suffering from retinitis pigmentosa; type: in vivo; details: 1 mg in poly(lactide-co-glycolide) microsphere suspension, injected subconjunctivally
Procedure: A dose of tazarotene (1 mg) contained in the poly(lactide-co-glycolide) microsphere suspension of Example containing 1 is injected subconjunctivally into a patient suffering from retinitis pigmentosa.
A dose of all-trans retinyl palmitate (1 mg) contained in the poly(lactide-co-glycolide) microsphere suspension of Example containing 1 is injected subconjunctivally into a patient suffering from retinitis pigmentosa.

[2] = Subconjunctival injection into a patient suffering from proliferative vitreal retinopathy; type: in vivo; details: 1 mg in poly(lactide-co-glycolide) microsphere suspension, injected subconjunctivally
Procedure: A dose of tazarotene (1 mg) contained in the poly(lactide-co-glycolide) microsphere suspension of Example containing 1 is injected subconjunctivally into a patient suffering from proliferative vitreal retinopathy.

RARα = target: T1, RARα (Homo sapiens, UniProt P10276); test: RARα receptor binding assay, competition with [3H] retinoic acid; details: Baculovirus-expressed receptor; Kd from IC50 by Cheng-Prussof; mean and standard deviation; read-out: receptor affinity (KD), RARα
T1 construct: made in house
T1 sequence (P10276 1-462): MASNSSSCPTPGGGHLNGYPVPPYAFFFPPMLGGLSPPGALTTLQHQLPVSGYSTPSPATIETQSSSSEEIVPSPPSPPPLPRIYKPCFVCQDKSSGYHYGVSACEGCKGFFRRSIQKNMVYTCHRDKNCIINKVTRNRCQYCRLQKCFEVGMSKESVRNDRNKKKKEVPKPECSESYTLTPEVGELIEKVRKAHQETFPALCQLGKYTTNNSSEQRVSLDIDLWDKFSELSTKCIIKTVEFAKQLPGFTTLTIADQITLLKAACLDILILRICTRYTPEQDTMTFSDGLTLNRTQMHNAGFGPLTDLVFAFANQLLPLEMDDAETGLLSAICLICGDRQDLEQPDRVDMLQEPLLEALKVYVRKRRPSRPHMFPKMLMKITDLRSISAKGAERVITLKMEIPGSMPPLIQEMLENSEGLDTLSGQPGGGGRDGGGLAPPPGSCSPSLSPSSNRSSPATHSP
Procedure: All binding assays were performed in a similar fashion.
All receptor binding assays were performed in the same manner. […] Incubations were carried out at 4° C. until equilibrium was achieved. Non-specific binding was defined as that binding remaining in the presence of 1000 nM of the appropriate unlabeled retinoic acid isomer. […] The mixture was vortexed and incubated for 10 minutes at 4° C., centrifuged and the supernatant removed. The hydroxyapitite was washed three more times with the appropriate wash buffer. The receptor-ligand complex was adsorbed by the hydroxyapitite. The amount of receptor-ligand complex was determined by liquid scintillation counting of hydroxyapitite pellet.
(§1) After correcting for non-specific binding, IC50 values were determined. […] The IC50 value was determined graphically from a loglogit plot of the data. The […] were determined by application of the Cheng-Prussof equation to the IC50 values, the labeled ligand concentration and the Kd of the labeled ligand.
The results of ligand binding assay are expressed in Kd numbers.

RARβ = target: T2, RARβ (Homo sapiens, UniProt P10826); test: RARβ receptor binding assay, competition with [3H] retinoic acid; details: Baculovirus-expressed receptor; Kd from IC50 by Cheng-Prussof; mean and standard deviation; read-out: receptor affinity (KD), RARβ
T2 construct: made in house
T2 sequence (P10826 1-455): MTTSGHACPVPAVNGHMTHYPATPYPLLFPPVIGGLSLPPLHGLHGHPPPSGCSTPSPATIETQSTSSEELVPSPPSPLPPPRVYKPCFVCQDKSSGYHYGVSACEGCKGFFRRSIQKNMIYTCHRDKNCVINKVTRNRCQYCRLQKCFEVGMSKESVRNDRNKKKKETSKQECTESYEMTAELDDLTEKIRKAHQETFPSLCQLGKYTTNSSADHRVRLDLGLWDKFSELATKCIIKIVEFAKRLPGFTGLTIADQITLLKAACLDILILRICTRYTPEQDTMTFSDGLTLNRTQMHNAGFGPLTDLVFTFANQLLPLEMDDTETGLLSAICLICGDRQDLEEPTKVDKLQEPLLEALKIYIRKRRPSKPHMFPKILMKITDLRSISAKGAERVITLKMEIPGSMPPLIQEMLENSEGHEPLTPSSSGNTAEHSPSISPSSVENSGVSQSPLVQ
Procedure: (§2) The binding of tazarotene and tazarotenic acid to the retinoic acid receptor (RAR) family receptors (RARα, RARβ, RARγ) was determined as follows.
(§3) All binding assays were performed in a similar fashion. All three receptor subtypes were derived from the expressed receptor type (RARα, RARβ, and RARγ) expressed in Baculovirus. Stock solutions of the compounds were prepared as 10 mM ethanol solutions and serial dilutions carried out into 1:1 DMSO; ethanol. Assay buffers consisted of the following for all six receptor assays: 8% glycerol, 120 mM KCl, 8 mM Tris, 5 mM CHAPS 4 mM DTT and 0.24 mM PMSF, pH-7.4 @ room temperature.
(§4) All receptor binding assays were performed in the same manner. […] The amount of receptor-ligand complex was determined by liquid scintillation counting of hydroxyapitite pellet.
as §1
(§5) The results of ligand binding assay are expressed in Kd numbers. […] Binding data for tazarotenic acid is expressed as the mean and standard deviation. […]

RARγ = target: T3, RARγ (Homo sapiens, UniProt P13631); test: RARγ receptor binding assay, competition with [3H] retinoic acid; details: Baculovirus-expressed receptor; Kd from IC50 by Cheng-Prussof; mean and standard deviation; read-out: receptor affinity (KD), RARγ
T3 construct: made in house
T3 sequence (P13631 1-454): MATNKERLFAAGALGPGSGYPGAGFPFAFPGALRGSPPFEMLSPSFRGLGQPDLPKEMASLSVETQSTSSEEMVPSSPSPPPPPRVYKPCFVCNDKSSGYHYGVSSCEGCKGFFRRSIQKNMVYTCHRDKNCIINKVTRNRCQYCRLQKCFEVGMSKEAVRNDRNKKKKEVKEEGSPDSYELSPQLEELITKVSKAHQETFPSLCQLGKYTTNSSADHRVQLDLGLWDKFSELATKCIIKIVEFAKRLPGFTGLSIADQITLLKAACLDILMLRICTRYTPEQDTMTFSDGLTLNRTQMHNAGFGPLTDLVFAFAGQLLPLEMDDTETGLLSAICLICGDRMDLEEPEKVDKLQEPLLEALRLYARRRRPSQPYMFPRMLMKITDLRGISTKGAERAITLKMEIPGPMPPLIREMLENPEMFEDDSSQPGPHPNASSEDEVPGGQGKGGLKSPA
Procedure: as §2, §3, §4, §1, §5

[3] = Ocular disposition of tazarotene and tazarotenic acid after intraocular and subconjunctival administration of tazarotene; type: in vivo; details: albino rabbits
Procedure: General disposition of tazarotene and tazarotenic acid resulting from intraocular and subconjunctival administration of tazarotene was assessed. Albino rabbits were dosed via intraocular injection with 1.25 μg of tazarotene. Injection was made mid-vitreous. After dosing the vitreous, retina and aqueous humor concentrations of tazarotene and tazarotenic acid were determined at 0.5, 1, 2, 4, 8, 12 and 24 hours post dosing.
Tazarotene was also dosed in the subconjunctival space. Three dosage forms were evaluated: the tazarotene aqueous suspension described in Example 2 (50 μl of the solution, 1 mg tazarotene), tazarotene olive oil solution described in Example 3 (50 μl mg of the solution, 1 mg of tazarotene), and the tazarotene poly(lactide-co-glycolide) microsphere suspension described in Example 1. After dosing, the vitreous, retina and aqueous humor concentrations of tazarotene and tazarotenic acid were determined at 2, 8, 24, 48, 96, 168 and 336 hours post dosing (see FIGS. 1-8). […] In Table 1 the mean vitreous concentration refers to average vitreous concentration observed from zero to one hundred sixty-eight hours post dosing. The mean vitreous concentration at each time point was used to calculate the overall vitreous mean concentration over the 168 hours for a given route of administration and dosage form. […]

SMILES	effect on vision, retinitis pigmentosa [1]	effect on traction retinal detachment, proliferative vitreal retinopathy [2]	Kd (RARα) [nM]	Kd (RARβ) [nM]	Kd (RARγ) [nM]	maximal vitreous concentration of tazarotenic acid obtainable after direct intraocular implantation ([3]; intraocular tazarotene) [ng/mL]	period for which concentrations were maintained at low effective levels ([3]; subconjunctival dosing of tazarotene, ocular tissues) [h]
CCCCCCCCCCCCCCCC(=O)OC/C=C(C)/C=C/C=C(C)/C=C/C1=C(C)CCCC1(C)C [all-trans retinyl palmitate]	Maintenance of vision or a slowing of the progression of vision loss is observed						
CCOC(=O)c1ccc(C#Cc2ccc3c(c2)C(C)(C)CCS3)nc1 [tazarotene, ethyl 6-[(4,4-dimethylthiochroman-6-yl)ethynyl]nicotinate]	Maintenance of vision or a slowing of the progression of vision loss is observed	Traction retinal detachment is prevented or the rate of traction retinal detachment is reduced					
CC1(C)CCSc2ccc(C#Cc3ccc(C(=O)O)cn3)cc21 [tazarotenic acid, 4,4-dimethyl-6-[2′-(5″-carboxy-2″-pyridyl)-ethynyl]-thiochroman]			901 ± 123	164 ± 48	353 ± 37	10	336
